Source: US10738031B2, “N-[(heteroaryloxy)propanyl]heteroaryl carboxamides as antagonists of orexin subtype 1 receptor activity” (Boehringer Ingelheim International GmbH, priority 2016, dated 2020)
Like-named read-outs stand apart in the source and are kept apart here.

Tests used:
[1] = biological target: T1, OX1R (Homo sapiens, UniProt O43613); assay: OX1R potency as described in WO2016/034882; settings: for IC50: read-out: OX1R IC50 (corresponds to pIC50) (converted)
T1 sequence (O43613 1-425): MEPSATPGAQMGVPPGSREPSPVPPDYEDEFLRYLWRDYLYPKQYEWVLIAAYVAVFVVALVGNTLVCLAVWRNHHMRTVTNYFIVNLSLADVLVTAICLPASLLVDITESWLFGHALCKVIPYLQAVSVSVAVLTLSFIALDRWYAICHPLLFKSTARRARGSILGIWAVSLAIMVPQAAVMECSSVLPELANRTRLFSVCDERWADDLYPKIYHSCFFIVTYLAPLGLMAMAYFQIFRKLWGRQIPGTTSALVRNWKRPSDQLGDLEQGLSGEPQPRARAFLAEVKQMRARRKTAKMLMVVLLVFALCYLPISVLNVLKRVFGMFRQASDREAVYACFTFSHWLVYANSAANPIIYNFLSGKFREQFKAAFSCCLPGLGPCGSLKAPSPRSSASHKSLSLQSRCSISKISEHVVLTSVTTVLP

[2] = biological target: T2, OX2R (Homo sapiens, UniProt O43614); assay: OX2R potency as described in WO2016/034882; settings: read-out: OX2R IC50 (corresponds to pIC50) (converted)
T2 sequence (O43614 1-444): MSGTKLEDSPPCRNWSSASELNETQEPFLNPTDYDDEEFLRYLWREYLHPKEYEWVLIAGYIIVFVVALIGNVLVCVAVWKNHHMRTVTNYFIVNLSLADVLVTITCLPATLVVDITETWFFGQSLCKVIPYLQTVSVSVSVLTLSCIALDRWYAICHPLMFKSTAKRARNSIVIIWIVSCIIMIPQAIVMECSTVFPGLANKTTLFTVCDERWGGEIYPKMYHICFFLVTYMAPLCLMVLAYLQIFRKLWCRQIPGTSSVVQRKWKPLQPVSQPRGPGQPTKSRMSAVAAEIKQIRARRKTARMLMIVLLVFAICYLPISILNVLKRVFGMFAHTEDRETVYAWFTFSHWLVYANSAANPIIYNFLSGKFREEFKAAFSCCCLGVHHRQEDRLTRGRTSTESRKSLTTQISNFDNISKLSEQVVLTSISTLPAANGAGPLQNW

[3] = biological target: T2, OX2R; settings: cited from earlier work
[4] = biological target: T3, human Orexin 1 receptor (Homo sapiens, UniProt O43613); assay: Assay A: OX1R IP1 (in vitro OX1R potency); format: cell-based; settings: for Kb: Table 3
T3 construct: stably expressing the full-length human Orexin 1 receptor; expressed in transfected cells; host or cells: CHO-K1 (CHO-K1/hOX1), co-expressing aequorin
T3 sequence (O43613 1-425): T1 sequence (O43613 1-425)

[5] = biological target: T4, human orexin 2 receptor (Homo sapiens, UniProt O43614); assay: Assay B: OX2R IP1 (in vitro OX2R potency); format: cell-based; settings: Table 3; 0.5 nM Orexin A concentration
T4 construct: stably expressing the full-length human orexin 2 receptor; expressed in transfected cells; host or cells: CHO-K1 (CHO-K1/hOX2), co-expressing aequorin
T4 sequence (O43614 1-444): T2 sequence (O43614 1-444)
From the text: Activation of the orexin receptors expressed in cell lines results in an increase in intracellular IP3 concentration. IP1, a downstream metabolite of IP3, accumulates in cells following receptor activation and is stable in the presence of LiCl. Using Homogeneous Time-Resolved Fluorescence technology with Lumi4-Tb cryptate (commercially available from Cisbio Bioassay.) and a suitable fluorescence plate reader. This functional response is detectable and quantifiable as described in Trinquet et al. Anal. […] Curr. Chem. Genomics 2009, 3, 22-32. This technique is used to characterize pharmacological modification of the orexin receptors. B. In Vitro Testing of OX2R Potency: OX2R IP1 IP1 measurements are performed in CHO-K1 cells stably expressing the full-length human orexin 2 receptor and the aequorin photoprotein. Cells are cultivated in Ham's nutrient mixture F12 medium with 10% fetal calf serum, in a 37° C., 95% humidity and 5% CO2 incubator. The CHO-K1/hOX2 cell mass is expanded to larger cell numbers. The cells are obtained as frozen cells in cryo-vials and stored until use at -150° C. The viability of the cells after thawing is >90%. In preparation for the assay, 24 hours before the assay, the cells are thawed at 37° C. and immediately diluted with cell culture medium. After centrifugation, the cell pellet is resuspended in medium and then distributed into the assay plates with a density of 5000 cells/25 μL per well. The plates are incubated for one hour at room temperature to reduce edge effects before they are incubated for 24 hours at 37° C./5% CO2. […] On the day of the assay, cells in the plate are washed twice with 60 μL assay buffer (20 μL buffer remained in the wells after washing), followed by adding 5 μL per well of compounds diluted in assay buffer. […] The assay plate is incubated for 60 minutes at 37° C. Then 5 μL per well of Anti-IP1-Cryptate Tb solution and 5 μL per well of IP1-d2 dilution are added to all well of the plate and the plate is incubated for a further 60 minutes light protected at room temperature. […] The ratio between the emission at 665 nm and 615 is calculated by the reader. […] AssayExplorer (Accelrys). In order to establish an agonist concentration independent parameter, Kb values are calculated using the following equation: […] Sci. 1993, 14(4), 110-112).

[6] = Assay C: Human MST t1/2 (stability in human liver microsomes); format: in vitro ADME; settings: for half-life: human liver microsomes

| SMILES | OX2R Kb/OX1R Kb [4] | Kb ([4]; Orexin A concentration 50 nM) [nM] | Kb ([4]; Orexin A concentration 0.5 nM) [nM] | Kb [5] [nM] | half-life [6] [min] | further results |
| --- | --- | --- | --- | --- | --- | --- |
| CC[C@@H](CNc1ncc(C(F)(F)F)cn1)N(C)C(=O)c1nc(C)ccc1-n1nccn1 [Ex 46 in WO2016/ 034882] |  |  |  |  |  | OX2R IC50/OX1R IC50 ([1]; Table 1 of WO2016/034882): 390; OX2R IC50/OX1R IC50 ([1]; Table 2 of WO2016/034882): > 312; IC50 ([1]; Table 2 of WO2016/034882): 32 nM; OX2R IC50/OX1R IC50 ([1]; Table 3 of WO2016/034882): 3200; IC50 ([1]; Table 3 of WO2016/034882): 3.2 nM; IC50 ([2]; Table 1 of WO2016/034882): 7800 nM; IC50 ([2]; Table 3 of WO2016/034882): ≥ 10000 nM; OX2R pIC50 ([3]; Table 2 of WO2016/034882): < 5.0; OX2R pIC50 ([3]; Table 3 of WO2016/034882): < 5.0 |
| CC[C@@H](CNc1cnc(C(F)(F)F)cn1)N(CC)C(=O)c1nc(C)ccc1-n1nccn1 [Ex 70 in WO2016/ 034882] | 319 | 0.135 |  |  |  | IC50 ([1]; Table 3 of WO2016/034882): 1.6 nM; IC50 ([2]; Table 3 of WO2016/034882): > 5000 nM |
| CC[C@@H](CNc1ncc(C(F)(F)F)cn1)N(CC)C(=O)c1nc(C)ccc1-n1nccn1 [Ex 73 in WO2016/ 034882] |  |  |  |  |  | OX2R pIC50 ([3]; Table 3 of WO2016/034882): < 6.0 |
| CCN(C(=O)c1cnccc1-n1nccn1)[C@@H](C)COc1ccc(Cl)cn1 [Example 48] | 147 |  | 2.6 | 381 | 33 |  |
| CCN(C(=O)c1nccc(C(F)(F)F)c1-c1ccn(C)n1)[C@@H](C)COc1ccc(C(F)(F)F)cn1 [Example 50] | 236 | 0.11 |  | 26 | 23 |  |
| CCN(C(=O)c1cccnc1-n1nccn1)[C@@H](C)COc1ccc(Cl)cn1 [Example 51] | 138 |  | 8.3 | 1140 | > 130 |  |
| CCN(C(=O)c1nc(C)ccc1-c1ncccn1)[C@@H](C)COc1cnc(C(F)(F)F)cn1 [Example 53] | 105 |  | 3.2 | 337 | > 130 | stability in human liver microsomes (in words) ([6]; compared with closest prior art compounds in WO2016/034882): markedly improved stability in human liver microsomes |
| CCN(C(=O)c1cc(OC)cnc1-n1nccn1)[C@@H](C)COc1ncc(C(F)(F)F)cc1F [Example 54] | 649 |  | 0.89 | 578 | > 130 |  |
| CCN(C(=O)c1cc(OC)cnc1-n1nccn1)[C@@H](C)COc1ccc(C(F)(F)F)cn1 [Example 56] |  | 0.49 | 0.5 | 260 | > 130 |  |
| CCN(C(=O)c1ncccc1-n1nccn1)[C@@H](C)COc1ncc(C(F)(F)F)cc1F [Example 57] | 233 |  | 1.8 | 419 | 56 |  |
| CCN(C(=O)c1c(F)ccnc1-c1ccn(C)n1)[C@@H](C)COc1ccc(C(F)(F)F)cn1 [Example 58] | 93 |  | 3.5 | 327 | 41 |  |
| CCN(C(=O)c1cc(F)cnc1-c1nnc(C)o1)[C@@H](C)COc1ccc(C(F)(F)F)cn1 [Example 59] | 214 |  | 31 | 6640 | > 130 |  |
| CCN(C(=O)c1ccc(C)nc1-n1nccn1)[C@@H](C)COc1ncc(C(F)(F)F)cc1F [Example 60] |  | 0.66 | 0.67 | 882 | > 130 |  |
| CCN(C(=O)c1cccnc1-n1nccn1)[C@@H](C)COc1ccc(C(F)(F)F)cn1 [Example 61] | 294 |  | 2.31 | 678 | > 130 |  |
| CCN(C(=O)c1ncc(C)cc1-n1cccn1)[C@@H](C)COc1ccc(C(F)(F)F)cn1 [Example 64] | 688 | 0.4 |  | 275 | 20 |  |
| CCN(C(=O)c1cnccc1-n1cccn1)[C@@H](C)COc1ccc(C(F)(F)F)cn1 [Example 69] | 139 |  | 2.2 | 305 | 13 |  |
| CCN(C(=O)c1cc(F)cnc1-c1ncccn1)[C@@H](C)COc1ccc(C(F)(F)F)cn1 [Example 70] | 691 |  | 1.5 | 1040 | > 130 |  |
| CCN(C(=O)c1ncccc1-n1nccn1)[C@@H](C)COc1ccc(Cl)cn1 [Example 71] | 113 |  | 3 | 339 | 63 |  |
| CCN(C(=O)c1cc(Cl)cnc1-n1nccn1)[C@@H](C)COc1ccc(C(F)(F)F)cn1 [Example 72] |  | 0.24 | 0.37 | 250 | > 130 |  |
